The results in this text go back to ChEMBL document CHEMBL1149398, “Pyrrolizidine esters and amides as 5-HT4 receptor agonists and antagonists” (J Med Chem, 2006).

In series [1] the test system is Salmonella typhi. Put plainly: Mutagenic activity in a GLP study using Salmonella Typhimurium TA100 in presence of S9 fraction at 7.2-3600 ug/plate. The series is classed as toxicity, organism-based. The conditions noted are these: salmonella enterica subsp. enterica […].
Series [2] deals with Canis familiaris. The experiment in a line: Contractile response of the antrum in iv dosed fasted dog. Format: functional. The conditions noted are these: Canis lupus familiaris.
Series [3] has as its system Salmonella typhi. The experiment in a line: Mutagenic activity in a GLP study using Salmonella Typhimurium TA1538 in presence of S9 fraction at 7.2-3600 ug/plate. The series is classed as toxicity, organism-based. The following applies: salmonella enterica subsp. enterica […].
In series [4] the target is Serotonin 3 receptor (5HT3) (Mus musculus) (UniProt Q9JHJ5+P23979). The experiment in a line: Antagonism at 5HT3 receptor in mice by von Bezold-Jarisch reflex inhibition at 3 mg/kg, ip. Format: functional, organism-based. Further details: dose 3 mg/kg; call rule not given here.
Chain of Serotonin 3 receptor (5HT3) (Mus musculus) (P23979 whole entry, looked up): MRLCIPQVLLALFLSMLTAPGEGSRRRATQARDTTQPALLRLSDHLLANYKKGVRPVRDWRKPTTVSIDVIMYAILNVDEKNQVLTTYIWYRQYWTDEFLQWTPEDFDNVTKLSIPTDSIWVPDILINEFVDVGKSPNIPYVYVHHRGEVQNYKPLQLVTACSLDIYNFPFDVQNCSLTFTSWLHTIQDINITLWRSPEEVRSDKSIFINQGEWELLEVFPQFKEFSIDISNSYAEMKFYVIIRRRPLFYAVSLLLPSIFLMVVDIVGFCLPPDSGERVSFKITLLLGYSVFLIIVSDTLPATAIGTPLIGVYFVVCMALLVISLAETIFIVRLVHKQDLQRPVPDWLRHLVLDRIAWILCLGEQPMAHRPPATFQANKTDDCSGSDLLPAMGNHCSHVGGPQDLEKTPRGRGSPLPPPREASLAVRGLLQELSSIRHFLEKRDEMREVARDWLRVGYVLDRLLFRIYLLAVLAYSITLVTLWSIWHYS
Chain of Serotonin 3 receptor (5HT3) (Mus musculus) (Q9JHJ5 whole entry, looked up): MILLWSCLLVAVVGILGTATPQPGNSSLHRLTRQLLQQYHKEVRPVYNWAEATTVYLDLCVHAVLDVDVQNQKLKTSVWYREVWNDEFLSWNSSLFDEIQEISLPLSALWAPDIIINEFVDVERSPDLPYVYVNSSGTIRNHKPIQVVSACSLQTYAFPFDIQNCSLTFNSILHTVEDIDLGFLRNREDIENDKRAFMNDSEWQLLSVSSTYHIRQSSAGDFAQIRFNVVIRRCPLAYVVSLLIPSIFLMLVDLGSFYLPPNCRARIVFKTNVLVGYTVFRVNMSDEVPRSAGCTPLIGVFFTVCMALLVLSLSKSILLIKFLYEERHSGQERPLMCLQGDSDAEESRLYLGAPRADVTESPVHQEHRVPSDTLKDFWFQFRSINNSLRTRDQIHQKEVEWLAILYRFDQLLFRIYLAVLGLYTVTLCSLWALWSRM

With `COc1cc(N)c(Cl)cc1C(=O)NC[C@@H]1CCN2CCC[C@@H]12`, the result in series [1] and in series [3] was Active. In addition, the median effective dose (ED50) in series [2] came to 0.01 mg/kg. For the same molecule, the inhibition in series [4] stood at 57%.

The term ED50 denotes the midpoint of the dose-response relation. Low values mean greater potency, high ones weaker potency. The inhibition is the share of the control response that was lost under treatment. Read a high inhibition as strong suppression.
